Test system: cholesterol absorption
Experiment: Cholesterol Absorption Assay in Mice
Type: in vivo, C57BL/6 male mice
Conditions: highest dose tested (oral, 0.12-10 mg/kg range); [3H]-cholesterol counts in liver and plasma, 5 h after cholesterol dose
Protocol: Compounds of this invention were determined to inhibit cholesterol absorption employing the Cholesterol Absorption Assay in Mice, below. This assay involves comparing a test compound to ezetimibe with respect to their ability to inhibit cholesterol absorption in mice.
Cholesterol Absorption Assay in Mice: C57BL/6 male mice (n=6/group), aged 10-14 weeks, were dosed orally with 0.2 ml 0.25% methyl cellulose solution with or without test compound or ezetimibe (0.12-10 mg/kg). Thirty minutes later all of the mice were dosed orally with 0.2 ml […]™ containing 2 μCi [^3H]-cholesterol per mouse. Five hours later, the animals were euthanized, and liver and blood were collected. Cholesterol counts in liver and plasma were determined, and percent inhibition of cholesterol absorption was calculated.

O=C1[C@H](CC[C@H](O)c2ccc(F)cc2)[C@@H](c2ccc(O)cc2)N1c1ccc(F)cc1 [ezetimibe]
inhibition of cholesterol absorption: > 90%
